Laboratory results published in paper doi:10.1101/2022.06.13.495986v1 (biorxiv, 2022).

Target: T1, HepII (Heptosyltransferase II) (Escherichia coli, UniProt P37692)
T1 sequence (P37692 1-348): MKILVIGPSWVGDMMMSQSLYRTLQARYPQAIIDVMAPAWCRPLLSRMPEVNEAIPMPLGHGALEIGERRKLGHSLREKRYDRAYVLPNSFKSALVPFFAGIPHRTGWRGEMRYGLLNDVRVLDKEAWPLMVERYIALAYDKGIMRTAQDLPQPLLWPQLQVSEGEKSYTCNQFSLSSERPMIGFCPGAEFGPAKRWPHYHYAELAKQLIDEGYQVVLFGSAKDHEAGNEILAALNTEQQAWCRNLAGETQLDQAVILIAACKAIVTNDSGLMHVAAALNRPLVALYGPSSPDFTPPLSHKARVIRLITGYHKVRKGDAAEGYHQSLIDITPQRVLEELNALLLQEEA
Test: tryptophan fluorescence quenching
Assay type: binding

Compound `Nc1ncnc2c1ncn2[C@@H]1O[C@H](COP(=O)(O)OP(=O)(O)O[C@@H]2O[C@H]([C@@H](O)CO)[C@@H](O)[C@H](O)[C@@H]2O)[C@@H](O)[C@H]1O` [ADP-Hep] has a Kd of 0.66 ± 0.46 µM.
